Structures are written as SMILES. ≈ marks a conversion by molar mass, not a printed value. Read-outs that look alike come from different tables or passages of the source.

The subject of one data set is bacteria. Description: Antibacterial activity, broth dilution (Table III). It is filed as cell-based. To be noted: graded activity, organism not given. An excerpt:
(§1) Antibacterial activity can be determined by several standard methods well known by those skilled in the art, including disc diffusions methods, broth dilution minimal inhibitory concentration (MIC) methods, etc., including the detailed method outlined below and as defined by the National Committee of Clinical Laboratory Standards in the United States.
(§2) MIC, Broth Dilution Method
(§3) Cultures of bacteria are initially brought up from the freezer stocks onto chocolate agar plates by streaking a loop-full, then incubated for 18 hours at 35-37° C. in a 5% CO2 incubator.
(§4) Five to 10 colonies are picked from the chocolate agar plate for subculture to Brain-Heart Infusion (BHI) broth or Mueller Hinton broth or BHI containing 4% serum and incubated as described.
(§5) Evaluate the optical density of the organisms in the wells of a 96 well microtiter plate with and without the test compound. The optical density of the organisms in the presence of an active compound will be less than the optical density of the same organism untreated. The activity of the compounds is described as either negative or the lowest concentration inhibiting growth. The results are depicted in Table III, where +/− represents the least activity and ++++ represents the greatest activity. In Table IV, the results are depicted where MIC represents the lowest concentration of antibiotic that inhibits bacterial growth.
A general note: Dilution methods test growth across graded concentrations, often in twofold steps.

For the next data set, the system named is Campylobacter jejuni. Briefly: MIC, broth dilution method, Campylobacter jejuni. It is filed as cell-based. To be noted: for MIC: Campylobacter jejuni.
Description: as §1, §2, §3, §4, §5

In the next data set the test system is Helicobacter pylori. Briefly: MIC, broth dilution method, Helicobacter pylori. Conditions: for MIC: Helicobacter pylori. It is filed as cell-based.
Description: as §1, §2, §3, §4, §5

[1] abbreviates: Table IV, MIC, lowest concentration that inhibits bacterial growth, read-out: Antibacterial Activity (micrograms/ml) Campylobacter jejuni.
Where [2] appears, read: Table IV, MIC, lowest concentration that inhibits bacterial growth, read-out: Antibacterial Activity (micrograms/ml) Helicobacter pylori.
Setting [3] is: Table IV, MIC, lowest concentration that inhibits bacterial growth.

What is called melting point is the temperature of the solid-liquid transition. For the molecule `CCN1C(=O)C(C(=O)O)CCc2cc(N3CCNCC3)c(OC)cc21.Cl` (racemic) [Example 15, 3(R, S)-Carboxyl-1-ethyl-8-methoxy-7-(piperazin-1-yl)-2,3,4,5-tetrahydro-1H-1-benzazepine-2-one hydrochloride], the melting point was 173 to 176 °C (dec.). Moreover, in the data set on bacteria, the “Antibacterial Activity” value is recorded as “−”. Further, the MIC in the data set on Campylobacter jejuni (setting [1]) is more than 200 µg/mL. The MIC with Helicobacter pylori (setting [2]) was more than 200 µg/mL.

`CCN1C(=O)C(C(=O)OC(C)(C)C)C=Cc2ccc(OC)cc21` (racemic) [Example 16, 3(R,S)-tert-Butoxycarbonyl-1-ethyl-8-methoxy-2,3-dihydro-1H-1-benzazepine-2-one] came in with a melting point of 173 to 174 °C. The “Antibacterial Activity” value in the data set with bacteria is on record as “++++”. The MIC with Campylobacter jejuni (setting [1]) is more than 200 µg/mL. Further, the MIC in the data set with Helicobacter pylori (setting [2]) was more than 6.25 µg/mL.

As for `CCN1C(=O)C(C(=O)O)CCc2cc(Br)c(OC)cc21` (racemic) [Example 17, 7-Bromo-3(R,S)-carboxyl-1-ethyl-8-methoxy-2,3,4,5tetrahydro-1H-1-benzazepine-2-one], the melting point is 188 to 189 °C (dec.). In addition, the “Antibacterial Activity” value in the data set on bacteria is “+/−”. Also, the MIC with Campylobacter jejuni (setting [1]) is more than 200 µg/mL. The MIC with Helicobacter pylori (setting [2]) stood at 200 µg/mL (≈ 584 µM).

As to `CCN1C(=O)C(C(=O)NC(C)(C)C)CCc2cc(Br)c(OC)cc21` (racemic) [Example 29, 7-bromo-3(R,S)-N-(tert-butyl)aminocarbonyl-1-ethyl-8-methoxy-2,3,4,5-tetrahydro-1H-1-benzazepine-2-one], the “Antibacterial Activity” value in the data set on bacteria is reported as “−”. The MIC in the data set with Campylobacter jejuni (setting [1]) and with Helicobacter pylori (setting [2]) was more than 200 µg/mL in each case.

On to `COc1cc2c(cc1Br)CCC(C(=O)OC(C)(C)C)C(=O)N2Cc1cccc(F)c1` (racemic) [Example 30, 7-Bromo-3(R,S)-tert-butoxycarbonyl-1-(3-fluorobenzyl)-8-methoxy-2,3,4,5-tetrahydro-1H-1-benzazepine-2-one], for which the melting point fell in the range of 146 to 148 °C. In addition, in the data set on bacteria, the “Antibacterial Activity” value was “++++”. Moreover, the MIC in the data set on Campylobacter jejuni (setting [1]) is more than 200 µg/mL. Further, in the data set with Helicobacter pylori (setting [2]), the MIC turned out to be 1.56 µg/mL (≈ 3.26 µM).

In the case of `COc1cc2c(cc1N1CCN(C(=O)OCc3ccccc3)CC1)CCC(C(=O)OC(C)(C)C)C(=O)N2Cc1cccc(F)c1` (racemic) [Example 31, 7-[(4-Benzyloxycarbonyl)piperazin-1-yl]-3(R,S)-tert-butoxycarbonyl-1-(3-fluorobenzyl)-8-methoxy-2,3,4,5-tetrahydro-1 H-1-benzazepine-2-one], the “Antibacterial Activity” value with bacteria is recorded as “++++”. Also, in the data set on Campylobacter jejuni (setting [3]), the “Antibacterial Activity (micrograms/ml) Campylobacter jejuni” value was more than 200 micrograms/ml. For the same molecule, in the data set with Helicobacter pylori (setting [3]), the “Antibacterial Activity (micrograms/ml) Helicobacter pylori” value is listed as 0.78 micrograms/ml.

For the molecule `COc1cc2c(cc1Br)CCC(C(=O)OC(C)(C)C)C(=O)N2` (racemic) [Example 32, 7-Bromo-3(R,S)-tert-butoxycarbonyl-8-methoxy-2,3,4,5-tetrahydro-1H-1-benzazepine-2-one], the melting point was 207 to 208 °C. Moreover, in the data set on bacteria, the “Antibacterial Activity” value was “++++”. Further, the MIC in the data set with Campylobacter jejuni (setting [1]) was more than 200 µg/mL. Also, the MIC with Helicobacter pylori (setting [2]) amounted to 0.78 µg/mL (≈ 2.11 µM).

On to `CCOC(=O)NC(=S)Nc1cc2c(cc1OC)NC(=O)C(C(=O)OC(C)(C)C)CC2` (racemic) [Example 176, 3(R,S)-tert-Butoxycarbonyl-7-[(ethoxycarbonylamino)thiocarbonyl)]amino-8-methoxy-2,3,4,5-tetrahydro-1H-1-benzazepine-2-one], for which the “Antibacterial Activity” value in the data set with bacteria is listed as “++++”. The “Antibacterial Activity (micrograms/ml) Campylobacter jejuni” value with Campylobacter jejuni (setting [3]) is recorded as more than 250 micrograms/ml. For the same molecule, the “MIC (μg/mL) C. jejuni” value with Campylobacter jejuni (Table V) was >250, μg/mL. Moreover, the “Antibacterial Activity (micrograms/ml) Helicobacter pylori” value in the data set on Helicobacter pylori (setting [3]) amounted to 4 micrograms/ml. Moreover, in the data set on Helicobacter pylori (Table V), the “MIC (μg/mL) H. pylori” value turned out to be 4 µg/mL (≈ 9.14 µM).

In the case of `CCN1C(=O)CCCc2cc(N3CCN(C)CC3)c(OC)cc21` [Example 10], the “Antibacterial Activity” value with bacteria was “+/−”. The “Antibacterial Activity (micrograms/ml) Campylobacter jejuni” value with Campylobacter jejuni (setting [3]) is recorded as more than 200 micrograms/ml. Moreover, the “Antibacterial Activity (micrograms/ml) Helicobacter pylori” value in the data set on Helicobacter pylori (setting [3]) is more than 200 micrograms/ml.

With `CCN1C(=O)CCCc2cc(N3CCNCC3)c(OC)cc21.Cl` [Example 22, 1-ethyl-8-methoxy-7-(piperazin-1-yl)-2,3,4,5-tetrahydro-1H-1-benzazepine-2-one hydrochloride], the “Antibacterial Activity” value with bacteria is listed as “−”. Further, the MIC in the data set on Campylobacter jejuni (setting [1]) and in the data set with Helicobacter pylori (setting [2]) was more than 200 µg/mL throughout.

Regarding `O=C1CCCc2ccc(O)cc2N1` [Example 33, 8-Hydroxy-2,3,4,5-tetrahydro-1H-1-benzazepine-2-one], the melting point fell in the range of 226 to 227 °C. In addition, the “Antibacterial Activity” value in the data set on bacteria is “++++”. Also, the MIC with Campylobacter jejuni (setting [1]) was more than 200 µg/mL. In addition, the MIC with Helicobacter pylori (setting [2]) is 0.78 µg/mL (≈ 4.4 µM).

In the case of `COc1ccc2c(c1)NC(=O)C(C(=O)NOCc1ccccc1)CC2` (centres unmarked) [Example 193, 3-Benzyloxyaminocarbonyl-8-methoxy-2,3,4,5-tetrahydro-1H-1-benzazepine-2-one], the melting point was 162 to 164 °C. In addition, in the data set on Campylobacter jejuni (Table V, read-out: MIC (μg/mL) C. jejuni), the MIC was more than 250 µg/mL. Also, in the data set on Helicobacter pylori (Table V, read-out: MIC (μg/mL) H. pylori), the MIC was 4 µg/mL (≈ 11.8 µM).

These data come from patent US20050234041A1, “Substituted 1-benzazepines and derivatives thereof” (priority 2001, published 2005).
